We go through one molecule from publication PMC7217877, “N-AS-triggered SPMs are direct regulators of microglia in a model of Alzheimer’s disease” (Nature Communications, 2020).

One assay has as its target T1, COX2 T564A (Homo sapiens, UniProt P35354, T564A).
T1 construct: His (N); made in house
T1 sequence (P35354 18-604 T564A): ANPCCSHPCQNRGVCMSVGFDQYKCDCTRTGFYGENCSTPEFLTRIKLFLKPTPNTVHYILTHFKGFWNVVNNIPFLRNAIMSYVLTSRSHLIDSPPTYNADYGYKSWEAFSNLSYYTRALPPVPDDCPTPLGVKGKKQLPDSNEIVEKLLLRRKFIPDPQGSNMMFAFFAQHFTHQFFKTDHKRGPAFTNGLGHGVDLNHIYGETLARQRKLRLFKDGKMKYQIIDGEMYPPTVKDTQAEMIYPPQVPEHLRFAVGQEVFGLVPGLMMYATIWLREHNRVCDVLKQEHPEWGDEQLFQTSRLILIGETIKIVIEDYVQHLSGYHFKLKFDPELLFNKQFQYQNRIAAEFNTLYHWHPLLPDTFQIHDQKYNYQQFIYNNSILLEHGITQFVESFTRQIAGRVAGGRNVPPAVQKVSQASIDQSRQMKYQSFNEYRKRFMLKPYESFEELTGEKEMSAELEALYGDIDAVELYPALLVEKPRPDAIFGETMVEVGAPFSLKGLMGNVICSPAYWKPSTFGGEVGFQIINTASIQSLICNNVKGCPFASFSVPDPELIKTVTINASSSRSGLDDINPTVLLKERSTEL
Kind of assay: filter binding assay of [14C] N-AS to COX2. To be noted: replicates. The source says: Single point mutations in SphK1 (R56A, R57A, R24A, R185A, D178A, and F192A) and COX2 (S565A, N181A, T564A, and S567A) were generated using the In-Fusion Cloning Kits (Clontech) and ORF cDNA expression plasmids of human SphK1 and COX2 gene (Sino Biological Inc, HG15679-NH and HG12036-NH), according to the manufacturer’s instructions. The forward and reverse primers described in Supplementary Table 4. The SphK1 WT, SphK1 mutants, COX2 WT, and COX2 mutant plasmids were transformed in the One shot TOP 10 competent cell (Invitrogen). The bacteria were grown in Luria-Bertani (LB, Invitrogen) plates supplemented with 50 μg ml^−1 kanamycin (Sigma-Aldrich) at 37 °C. The bacterial cell pellets were resuspended in lysis buffer containing 20 mM sodium phosphate (GE Healthcare), 500 mM NaCl (GE Healthcare), 20 mM imidazole (pH 7.4) (GE Healthcare), 0.2 mg ml^−1 lysozyme (Sigma-Aldrich), 20 μg ml^−1 DNase I (Roche), 1 mM MgCl2 (Sigma-Aldrich), and 1 mM PMSF (Sigma-Aldrich) before being lysed by sonication and clarified by centrifugation at 15,493×g for 10 min. Proteins were purified from the soluble fraction using His-Spin Trap columns (GE Healthcare) and the binding and acetylation assays were performed.
Briefly, SphK1 WT and mutant enzymes (1 mU) were resuspended in 100 μl reaction buffer (20 mM HEPES; pH 7.4, 50 mM NaCl, 10 mM MgCl2, 1 mM EGTA, 0.02% Triton-X100, and 100 μM sphingosine, all from Sigma-Aldrich). […] Briefly, COX2 WT and mutant enzymes (1 mU) were resuspended in 100 μl reaction buffer (20 mM HEPES; pH 7.4, 50 mM NaCl, 10 mM MgCl2, 1 mM EGTA, and 0.02% Triton-X100, all from Sigma-Aldrich). Reactions were initiated by adding [^14C] N-AS (1–200 μM (0.1–20 μCi), ARC UK Ltd, ARC-1024) and incubated at 37 °C for 1 h. The reactions were terminated by adding 100 μl of ice-cold reaction buffer containing 5 mM cold N-AS and immediately filtered through P30 filtermat (Perkin-Elmer), followed by five washes.
The binding velocity was plotted and the Kcat and KM values were calculated from the Michaelis-Menten analysis using the Sigma-plot program (ver 10.0, Systat software Inc.).

In another assay the test system is APP/PS1 mice. Kind of assay: light-dark test (Supplementary Fig 7j-n). The class given is in vivo, mouse. As to conditions: N-AS vs APP/PS1. How it is done:
Transgenic mouse lines over-expressing the hAPP695swe (APP) and presenilin-1M146V (PS1) mutations were originated from GlaxoSmithKline (Harlow, UK)[32] and maintained as described previously. We purchased 5×FAD mice from Jackson Labs (Stock number. 34840-JAX). Because APP/PS1 and 5xFAD mice show sex differences in disease progression, we used only male mice. To examine possible therapeutic effect of N-AS and aspirin in APP/PS1 mice, the N-AS (30 mg kg^−1, Sigma-Aldrich, 01912) was injected daily s.c. for 8 weeks to 7-months-old APP/PS1 mice until the age of 9 months, and aspirin (2 mg kg^−1, Sigma-Aldrich, A5376)[33] was administrated orally to 7-months-old APP/PS1 mice for 8 weeks. […] Block randomization method was used to allocate the animals to experimental groups. To eliminate the bias, we were blinded in experimental progress such as data collection and data analysis. Mice were housed at temperature of 22 °C and a 12 h day/12 h night cycle with free access to tap water and food pellets. All protocols were approved by the Kyungpook National University Institutional Animal Care and Use Committee. […] Freezing was analyzed for 5 min. […] Overall activity in the box was measured, and the amount of time and distance traveled in the center arena was noted. […] The total number of transitions, latency to first enter the light chamber, distance traveled, and time spent in each chamber were recorded.

Several values for one entry are separate records, joined by “and”; a condition that tells them apart may be missing. Identical values can stand only once.

For `CCCCCCCCCCCCC/C=C/[C@@H](O)[C@H](CO)NC(C)=O` [N-AS, N-((2S,3R,E)-1,3-Dihydroxyoctadec-4-en-2-yl)acetamide], the “binding velocity (Vbinding)” value at COX2 T564A (1 uM) is 0.251 nM/min and 0.379 nM/min and 0.622 nM/min; on COX2 T564A (5 uM), 7.230 nM/min and 6.808 nM/min and 11.168 nM/min; at COX2 T564A (10 uM) it was 7.378 nM/min and 8.069 nM/min and 9.338 nM/min; at COX2 T564A (20 uM), 12.382 nM/min and 16.697 nM/min and 16.993 nM/min; at COX2 T564A (100 uM), 28.376 nM/min and 29.582 nM/min and 24.951 nM/min; at COX2 T564A (200 uM) it was 37.587 nM/min and 41.759 nM/min and 47.017 nM/min. In addition, the “light–dark test” value with APP/PS1 mice is reported as “did not differ between the groups”.
